# Assay results from patent publication US20100190710A1, “IL-23 RECEPTOR ANTAGONISTS AND USES THEREOF” (Valorisation HSJ, Societe en Commandite, priority 2007, published 2010).
# Entries after “also recorded” stand apart in the source; their conditions may differ. Peptide text beside a SMILES is read from it.
# Columns and labels:
# IL-12R = target: T1, IL-12R (Homo sapiens, UniProt P42701+Q99665); experiment: IL-12-induced STAT4 phosphorylation (selectivity, Western blot); format: cell-based; conditions: even at high concentrations, i.e., 10 μM
# T1 construct: endogenous in cells
# Description: FIGS. 8A and 8B are a series of graphs and Western Blots showing the specificity and selectivity of IL-23R binding peptides. […] [^125I]-2305 binding was performed in phosphate buffer saline pH=7.4 on PMA-activated HL-60 cells. [^125I]-labelled and unlabelled peptide 2305 was incubated with cells for 1 hour for equilibration. Cells were then washed four times and bound radioactivity measured using a Cobra II Autogamma gamma counter (Packard). Non-activated HL-60 cells, which express little IL-23R, were used as a negative control (shown on Western Blot of IL-23 receptor). A robust increase in IL-23R expression by PMA was observed on duplicate Western blots. Peptide 2305 is easily labelled with [^125I] on its tyrosine; in absence of tyrosine (e.g., peptide 2309) [^14C]-labelled amino acids can be used. […] IL-12R is very homologous to IL-23R. Western Blots of phosphorylated STAT4 and total STAT4 were performed on cell lysates.
# [1] = tested on: PMA-induced dermatitis (ear); format: in vivo, CD-1 mice
# Excerpt: FIGS. 10A and 10B are a series of images and a graph showing efficacy of topical anti-IL-23R peptides in treating PMA-induced dermatitis. PMA-induced dermatitis is often utilized as a model of chronic (and scaling) dermatitis, reminiscent of psoriatic dermatitis. […] FIG. 10B is a graph showing the differences in weight (mg) of ear punches with control ears untreated with PMA. […] FIGS. 11A to 11C are a series of images and graphs showing dose-response to topical administration of peptide 2309 in PMA-induced dermatitis. FIG. 11A is a photographic representation of dose-dependent effects of topical administration of peptide 2309 (mixed in PEG-400) on PMA-induced dermatitis in CD-1 mice. Concentrations of peptide 2309≧100 nM show significant efficacy.
# PMA-induced ear edema = experiment: PMA-induced ear edema, enteral (oral) administration; format: in vivo, rats; conditions: 20 mg/kg administered orally
# Description: FIGS. 13A and 13B are graphs showing the effect of peptides APG-2305 (FIG. 13A) and APG-2309 (FIG. 13B) on PMA-induced inflammation. Intraperitoneal administration is abreviated “i.p.” and oral administration is abreviated “p.o.” Peptides APG-2305 and APG-2309 were also given by enteral administration to rats to verify their oral availability. The peptides at various concentrations were injected (twice a day; 200 μl) into the stomach with a gavage needle (Number 20) starting at day 2 of PMA treatment. On day 4 the total peptide dose was given as a bolus and animals were sacrificed 4-6 hours later. […] Scrambled peptide of APG-2305 (5 mg/kg/day) and intraperitoneal APG-2305 served as negative and positive controls respectively. APG-2309 was also injected enterally but inhibit PMA-induced ear edema only slightly at 20 mg/kg administered orally (FIG. 13B). APG-2309 is more hydrophobic than APG-2305.
# IL-23 receptor = target: T2, IL-23 receptor (Homo sapiens, UniProt Q5VWK5); experiment: IL-23-induced STAT3 phosphorylation in PMA-activated HL-60 monocytes (Western blot); format: cell-based; parameters: endogenous in cells; conditions: PMA-activated HL-60 human monocytes; peptide 1 μM, 30 min pre-incubation; IL-23 10 ng/ml, 15 min
# T2 sequence (Q5VWK5 24-629): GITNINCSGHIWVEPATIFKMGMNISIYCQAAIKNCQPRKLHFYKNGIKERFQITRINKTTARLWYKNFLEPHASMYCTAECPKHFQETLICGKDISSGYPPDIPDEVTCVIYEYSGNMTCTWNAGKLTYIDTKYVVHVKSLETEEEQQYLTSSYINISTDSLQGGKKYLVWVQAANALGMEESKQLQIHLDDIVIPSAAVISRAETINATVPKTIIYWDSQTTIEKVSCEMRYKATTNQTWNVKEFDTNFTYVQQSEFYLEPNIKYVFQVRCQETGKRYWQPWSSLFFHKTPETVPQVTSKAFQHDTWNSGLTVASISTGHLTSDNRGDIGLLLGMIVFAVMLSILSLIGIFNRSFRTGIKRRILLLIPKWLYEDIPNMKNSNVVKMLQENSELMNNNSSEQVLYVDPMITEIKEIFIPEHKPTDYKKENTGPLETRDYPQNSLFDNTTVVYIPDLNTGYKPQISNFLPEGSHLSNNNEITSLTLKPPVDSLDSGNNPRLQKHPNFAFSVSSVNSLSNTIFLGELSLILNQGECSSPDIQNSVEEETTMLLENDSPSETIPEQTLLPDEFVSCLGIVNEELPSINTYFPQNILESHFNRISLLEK
# Description: FIG. 2 is a graph showing the results of efficacy screening of peptides designed from the IL-23 receptor. HL-60 human monocytes were pre-incubated for 30 minutes with the particular peptides (1 μM) and stimulated for 15 minutes with IL-23 (10 ng/ml). Western Blot analysis of phosphorylated-STAT3 and total STAT3 was performed on cell lysates. Immunoblot densitometry was measured using ImagePro4+ software. […] FIGS. 3A and 3B are graphs showing inhibition of IL-23-induced STAT3 phosphorylation and TNFα generation. […] Western Blot analysis was performed on cell lysates, and immunoblot densitometry was measured using ImagePro4+ software. […] TNFα production was quantified by ELISA 24 hours after stimulation with IL-23 using the Quantikine ELISA Kit (R&D systems). […] D-peptides 2303, 2305, 2307 and 2309 (1 μM) inhibit IL-23-induced STAT3 phosphorylation in phorbol 12-myristate 13-acetate (PMA)-activated human monocytes (HL-60) (FIG. 2).
# MOG-induced EAE = experiment: Experimental Autoimmune Encephalitis (EAE) model; format: in vivo, C57/BL6 mice; conditions: for clinical signs of EAE: intraperitoneal
# [2] = three times a day (3 mg/kg/day), Sudan black stain, listed as APG-2309
# T1 sequence (Q99665 24-862, other chains not shown): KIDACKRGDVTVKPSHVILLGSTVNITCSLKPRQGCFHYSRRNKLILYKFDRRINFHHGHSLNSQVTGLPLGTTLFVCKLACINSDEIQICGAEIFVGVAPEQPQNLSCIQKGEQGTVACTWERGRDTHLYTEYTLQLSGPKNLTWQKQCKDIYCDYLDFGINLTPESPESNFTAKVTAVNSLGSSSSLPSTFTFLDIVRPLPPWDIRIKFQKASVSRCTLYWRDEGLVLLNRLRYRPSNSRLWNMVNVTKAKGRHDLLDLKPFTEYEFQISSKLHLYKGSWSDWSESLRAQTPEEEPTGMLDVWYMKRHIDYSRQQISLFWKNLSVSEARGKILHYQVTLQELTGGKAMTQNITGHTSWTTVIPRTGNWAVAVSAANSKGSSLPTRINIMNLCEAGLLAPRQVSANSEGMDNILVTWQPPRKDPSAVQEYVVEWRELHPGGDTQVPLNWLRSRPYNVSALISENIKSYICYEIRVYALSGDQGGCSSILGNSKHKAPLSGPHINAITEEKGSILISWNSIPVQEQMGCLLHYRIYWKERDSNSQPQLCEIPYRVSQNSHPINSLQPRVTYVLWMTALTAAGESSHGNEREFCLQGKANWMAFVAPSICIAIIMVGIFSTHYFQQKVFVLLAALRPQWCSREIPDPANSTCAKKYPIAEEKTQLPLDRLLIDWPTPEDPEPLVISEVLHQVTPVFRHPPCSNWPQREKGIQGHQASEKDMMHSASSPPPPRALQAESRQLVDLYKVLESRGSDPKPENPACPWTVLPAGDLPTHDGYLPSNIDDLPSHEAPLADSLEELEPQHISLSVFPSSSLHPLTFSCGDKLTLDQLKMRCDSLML
structure (smiles),measurement,setting,value
"CSCC[C@@H](N)C(=O)N[C@H](CCC(=O)O)C(=O)N[C@H](CCC(=O)O)C(=O)N[C@H](CO)C(=O)N[C@H](CCCCN)C(=O)N[C@H](CCC(N)=O)C(=O)N[C@H](CC(C)C)C(=O)N[C@H](CCC(N)=O)C(=O)N[C@H](CC(C)C)C(=O)O [Peptide 2309, MEESKQLQL] (HELM PEPTIDE1{[dM].[dE].[dE].[dS].[dK].[dQ].[dL].[dQ].[dL]}$$$$V2.0; N-terminus and C-terminus assumed)",effect on IL-12-induced STAT4 phosphorylation,IL-12R,does not inhibit; also recorded: inability
same,EC50,"[1]; mouse, in vivo",~50 nM
same,transdermal penetration,"[1]; mouse, in vivo",effective transdermal penetration
same,PMA-induced edema (weight of ear punches),[1]; topical dose-response (FIG. 11B),dose-dependent reduction in PMA-induced edema
same,capillary leak (Evan's blue technique),[1]; topical dose-response (FIG. 11C),diminished capillary leak
same,concentrations showing significant efficacy,[1]; topical in PEG-400 (FIG. 11A),≥ 100 nM
same,PMA-induced ear edema,PMA-induced ear edema,only slightly
same,effect on IL-23-induced STAT3 phosphorylation,IL-23 receptor,demonstrable efficacy; also recorded: inhibit; also recorded: remained capable of inhibiting
same,EAE-induced demyelination of the cerebellum,MOG-induced EAE; [2],protects against EAE-induced demyelination of the cerebellum; also recorded: totally prevents
same,EAE-induced demyelination of the spinal cord,MOG-induced EAE; [2],protects against EAE-induced demyelination of the spinal cord; also recorded: totally prevents
same,clinical signs of EAE,MOG-induced EAE; treatment three times a day,completely abolished the induction of the disease symptoms
same,clinical signs of EAE,MOG-induced EAE; twice a day at 2 mg/kg/day,retarded the appearance of the clinical signs of EAE
